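Five concentrations, 48 hours, 96-well plates. TGI: concentration producing complete growth inhibition.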
Tests used:
Assay in all cases: DTP human tumour cell line panel, 48 h
[1] = system: 786-0 renal
[2] = system: A498 renal
[3] = system: A549 NSCLC
[4] = system: ACHN renal
[5] = system: BT-549 breast
[6] = system: CAKI-1 renal
[7] = system: EKVX NSCLC
[8] = system: HCT-116 colon
[9] = system: HCT-15 colon
[10] = system: HL-60(TB) leukemia
[11] = system: HOP-62 NSCLC
[12] = system: HOP-92 NSCLC
[13] = system: HS 578T breast
[14] = system: HT29 colon
[15] = system: IGROV1 ovarian
[16] = system: K-562 leukemia
[17] = system: KM12 colon
[18] = system: LOX IMVI melanoma
[19] = system: M14 melanoma
[20] = system: MALME-3M melanoma
[21] = system: MDA-MB-231 breast
[22] = system: MDA-MB-435
[23] = system: MDA-N
[24] = system: MOLT-4 leukemia
[25] = system: NCI-H226 lung
[26] = system: NCI-H23 lung
[27] = system: NCI-H460 lung
[28] = system: NCI-H522 lung
[29] = system: NCI/ADR-RES ovarian
[30] = system: OVCAR-3 ovarian
[31] = system: OVCAR-4 ovarian
[32] = system: OVCAR-5 ovarian
[33] = system: OVCAR-8 ovarian
[34] = system: PC-3 prostate
[35] = system: RXF 393 renal
[36] = system: SF-268 CNS
[37] = system: SF-295 CNS
[38] = system: SK-MEL-2 melanoma
[39] = system: SK-MEL-28 melanoma
[40] = system: SK-MEL-5 melanoma
[41] = system: SN12C renal
[42] = system: SNB-19 CNS
[43] = system: SR leukemia
[44] = system: SW-620 colon
[45] = system: T-47D breast
[46] = system: TK-10 renal
[47] = system: U251 CNS
[48] = system: UACC-257 melanoma
[49] = system: UACC-62 melanoma
[50] = system: UO-31 renal
[51] = system: CCRF-CEM leukemia
[52] = system: COLO 205 colon
[53] = system: HCC-2998 colon
[54] = system: MCF7 breast
[55] = system: RPMI-8226 leukemia
[56] = system: SNB-75 CNS
[57] = system: DU-145 prostate
[58] = system: SF-539 CNS
[59] = system: SK-OV-3 ovarian

c1ccc2c(c1)nnn2CN1CCOCC1 showed a TGI [1] of over 100 µM, a TGI [2] of over 100 µM and a TGI [3] of over 100 µM. It also gave a TGI [4] of over 100 µM, a TGI [5] of over 100 µM and a TGI [6] of over 100 µM. The TGI [7] was over 100 µM, the TGI [8] was over 100 µM and the TGI [9] was over 100 µM. The TGI [10] was 63.6 µM, the TGI [11] was over 100 µM and the TGI [12] was over 100 µM. For the same molecule, the TGI [13] was over 100 µM, the TGI [14] was over 100 µM and the TGI [15] was over 100 µM. For the same molecule, the TGI [16] was over 100 µM, the TGI [17] was over 100 µM and the TGI [18] was over 100 µM. The TGI [19] was over 100 µM, the TGI [20] was over 100 µM and the TGI [21] was over 100 µM. For the same molecule, the TGI [22] was over 100 µM, the TGI [23] was over 100 µM and the TGI [24] was over 100 µM. The TGI [25] was over 100 µM, the TGI [26] was over 100 µM and the TGI [27] was over 100 µM. For the same molecule, the TGI [28] was over 100 µM, the TGI [29] was over 100 µM and the TGI [30] was 93.1 µM. The TGI [31] was over 100 µM, the TGI [32] was over 100 µM and the TGI [33] was over 100 µM. For the same molecule, the TGI [34] was over 100 µM, the TGI [35] was over 100 µM and the TGI [36] was over 100 µM. The TGI [37] was over 100 µM, the TGI [38] was over 100 µM and the TGI [39] was over 100 µM. The TGI [40] was over 100 µM, the TGI [41] was over 100 µM and the TGI [42] was over 100 µM. For the same molecule, the TGI [43] was 54.8 µM, the TGI [44] was over 100 µM and the TGI [45] was over 100 µM. The TGI [46] was over 100 µM, the TGI [47] was over 100 µM and the TGI [48] was over 100 µM. The TGI [49] was over 100 µM and the TGI [50] was over 100 µM.
Cc1ccc(N=C2SC(=S)N(CCC[N+](C)(C)C)C2=Nc2ccc(C)cc2)cc1 showed a TGI [1] of 30.3 µM, a TGI [2] of 40.7 µM and a TGI [3] of 33.8 µM. The TGI [4] was 30.1 µM, the TGI [5] was 15.4 µM and the TGI [51] was 58 µM. It also gave a TGI [52] of 87.6 µM, a TGI [7] of 38.5 µM and a TGI [53] of 39.6 µM. For the same molecule, the TGI [8] was 25.4 µM, the TGI [9] was 31.4 µM and the TGI [10] was 5.86 µM. It also gave a TGI [11] of 52.7 µM, a TGI [12] of 31.6 µM and a TGI [13] of 24.6 µM. It also gave a TGI [14] of 32.9 µM, a TGI [15] of 26.6 µM and a TGI [16] of 32.9 µM. The TGI [17] was 50.1 µM, the TGI [19] was 46.1 µM and the TGI [20] was 41.9 µM. The TGI [54] was 48.3 µM, the TGI [21] was 32.3 µM and the TGI [23] was 28.5 µM. It also gave a TGI [24] of 37.8 µM, a TGI [25] of 47 µM and a TGI [26] of 32.7 µM. It also gave a TGI [27] of 36.3 µM, a TGI [32] of 29.7 µM and a TGI [33] of 38.8 µM. For the same molecule, the TGI [34] was 28.3 µM, the TGI [55] was 32 µM and the TGI [35] was 18 µM. The TGI [38] was 35.9 µM, the TGI [39] was 23.7 µM and the TGI [40] was 27.5 µM. For the same molecule, the TGI [41] was 29.5 µM, the TGI [42] was 27.7 µM and the TGI [56] was 22.6 µM. The TGI [43] was 27 µM, the TGI [44] was 41.4 µM and the TGI [45] was 18.7 µM. For the same molecule, the TGI [46] was 36.8 µM, the TGI [47] was 26.6 µM and the TGI [48] was 32 µM. For the same molecule, the TGI [49] was 22.3 µM and the TGI [50] was 37.8 µM.
O=C1/C(=C\c2cccc(Oc3ccccc3)c2)SC(c2ccccc2)N1c1ccccc1Cl (stereo not drawn) gave a TGI [1] of over 100 µM, a TGI [2] of over 100 µM and a TGI [3] of over 100 µM. It also gave a TGI [4] of over 100 µM, a TGI [5] of 96.6 µM and a TGI [6] of over 100 µM. The TGI [51] was 38.4 µM, the TGI [52] was 49 µM and the TGI [57] was over 100 µM. It also gave a TGI [7] of over 100 µM, a TGI [53] of 78.9 µM and a TGI [8] of 50.7 µM. For the same molecule, the TGI [9] was over 100 µM, the TGI [10] was over 100 µM and the TGI [11] was over 100 µM. It also gave a TGI [12] of 57.5 µM, a TGI [13] of 60.2 µM and a TGI [14] of 49.9 µM. It also gave a TGI [16] of over 100 µM, a TGI [17] of 98.8 µM and a TGI [18] of 75.8 µM. For the same molecule, the TGI [19] was over 100 µM, the TGI [20] was over 100 µM and the TGI [54] was over 100 µM. The TGI [21] was over 100 µM, the TGI [22] was 68 µM and the TGI [23] was 54.2 µM. The TGI [24] was over 100 µM, the TGI [25] was over 100 µM and the TGI [26] was 69.7 µM. The TGI [27] was over 100 µM, the TGI [28] was 48.5 µM and the TGI [29] was over 100 µM. It also gave a TGI [30] of over 100 µM, a TGI [31] of over 100 µM and a TGI [32] of over 100 µM. The TGI [33] was 79.9 µM, the TGI [55] was 55.3 µM and the TGI [35] was 78.5 µM. The TGI [36] was over 100 µM, the TGI [37] was over 100 µM and the TGI [58] was 39 µM. It also gave a TGI [38] of 92.4 µM, a TGI [39] of over 100 µM and a TGI [40] of 29.8 µM. It also gave a TGI [59] of over 100 µM, a TGI [41] of 96.9 µM and a TGI [42] of 76.4 µM. The TGI [43] was over 100 µM, the TGI [44] was over 100 µM and the TGI [45] was over 100 µM. The TGI [46] was over 100 µM, the TGI [47] was 78.5 µM and the TGI [48] was 85.8 µM. The TGI [49] was over 100 µM and the TGI [50] was over 100 µM.

From PubChem BioAssay (NCI)
